Test results taken from paper PMC9402538, “Rational design of a sensitivity-enhanced tracer for discovering efficient APC–Asef inhibitors” (Nature Communications, 2022).
Like-named read-outs stand apart in the source and are kept apart here. Where a SMILES comes first, the peptide text is derived from it. The star is where a group is joined. Benzoyl(4-OMe) = COc1ccc(C(=O)*)cc1

Legend:
APC (303–739) = biological target: T1, APC (303–739) (Homo sapiens, UniProt P25054); assay: FP competitive assay using tracer 7; format: binding; details: for IC50: Table 3 source data
T1 sequence (P25054 303-739): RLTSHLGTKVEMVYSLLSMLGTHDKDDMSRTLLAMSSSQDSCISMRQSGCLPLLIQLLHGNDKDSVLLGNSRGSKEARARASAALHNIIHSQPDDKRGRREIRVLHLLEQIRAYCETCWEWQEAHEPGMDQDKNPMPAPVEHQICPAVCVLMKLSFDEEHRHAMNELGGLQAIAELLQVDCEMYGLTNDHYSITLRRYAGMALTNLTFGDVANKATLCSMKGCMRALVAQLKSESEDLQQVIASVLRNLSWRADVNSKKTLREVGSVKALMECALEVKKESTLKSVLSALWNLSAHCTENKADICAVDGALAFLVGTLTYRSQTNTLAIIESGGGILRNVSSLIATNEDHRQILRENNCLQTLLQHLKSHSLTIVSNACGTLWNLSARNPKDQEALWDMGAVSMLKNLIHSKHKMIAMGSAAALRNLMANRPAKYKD
Procedure, shortened: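 Peptide dilutions were first incubated 1 h at room temperature with APC (303–739) in HEPES pH 7.5 buffer containing 300 mM NaCl, EDTA and DTT. Added FITC tracer 7 (400 nM stock) displaced over a further 1.5 h before polarization reading. IC50 values came from nonlinear regression fits of triplicate data.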

His-tagged APC (303–739) = biological target: T2, His-tagged APC (303–739) (Homo sapiens, UniProt P25054); assay: Surface plasmon resonance (Biacore 8K); format: binding
T2 sequence (P25054 303-739): T1 sequence (P25054 303-739)
Description: SPR experiments were performed using a Biacore 8 K system equipped with a CM5 sensor chip. […] The ligand at a 10 μg mL^-1 concentration in 10 mM sodium acetate, pH 5.0, was immobilized on flow cell 2; flow cell 1 was left blank to serve as a reference surface. […] To collect kinetic binding data, a serial concentration of peptide inhibitors in 1× PBS, pH 7.4, was injected over the two flow cells at a flow rate of 30 μL min^-1 and a temperature of 25 °C. The complex was allowed to associate and dissociate for 60–240 and 150–600 s, respectively. The experiments were performed in triplicate. […] The data were fitted to a Langmuir 1:1 binding model using the local Rmax analysis option available in the Biacore insight evaluation software.

COc1ccc(C(=O)N[C@@H](C)C(=O)NCC(=O)N[C@@H](CCC(=O)O)C(=O)N[C@@H](CO)C(=O)N[C@@H](CC(C)C)C(=O)N[C@@H](Cc2ccc(O)cc2)C(=O)N[C@@H](CCC(=O)O)C(N)=O)cc1 [MAI-516] ({Benzoyl(4-OMe)}-AGESLYE-NH2)
mean (FP signal, FigS5) (APC (303–739); Repeat 1, Conc. 20 μM): 44.3 | IC50 (APC (303–739); Repeat 1, read-out: IC50(μM) Repeat 1): 0.0453 µM | mean (FP signal, FigS5) (APC (303–739); Repeat 2, Conc. 0.0002 μM): 302.3 | mean (FP signal, FigS5) (APC (303–739); Repeat 2, Conc. 0.0005 μM): 304.7 | mean (FP signal, FigS5) (APC (303–739); Repeat 2, Conc. 0.001 μM): 303 | mean (FP signal, FigS5) (APC (303–739); Repeat 2, Conc. 0.002 μM): 302.7 | mean (FP signal, FigS5) (APC (303–739); Repeat 2, Conc. 0.0039 μM): 295.7 | mean (FP signal, FigS5) (APC (303–739); Repeat 2, Conc. 0.0078 μM): 286.7 | mean (FP signal, FigS5) (APC (303–739); Repeat 2, Conc. 0.0156 μM): 253.7 | mean (FP signal, FigS5) (APC (303–739); Repeat 2, Conc. 0.0313 μM): 190.3 | mean (FP signal, FigS5) (APC (303–739); Repeat 2, Conc. 0.0625 μM): 134.3 | mean (FP signal, FigS5) (APC (303–739); Repeat 2, Conc. 0.125 μM): 96.3 | mean (FP signal, FigS5) (APC (303–739); Repeat 2, Conc. 0.25 μM): 73 | mean (FP signal, FigS5) (APC (303–739); Repeat 2, Conc. 0.5 μM): 59 | mean (FP signal, FigS5) (APC (303–739); Repeat 2, Conc. 1 μM): 51 | mean (FP signal, FigS5) (APC (303–739); Repeat 2, Conc. 2 μM): 48 | IC50 (APC (303–739); Repeat 2, read-out: IC50(μM) Repeat 2): 0.0412 µM | mean (FP signal, FigS5) (APC (303–739); Repeat 3, Conc. 0.006 μM): 307.3 | mean (FP signal, FigS5) (APC (303–739); Repeat 3, Conc. 0.012 μM): 294 | mean (FP signal, FigS5) (APC (303–739); Repeat 3, Conc. 0.024 μM): 259 | mean (FP signal, FigS5) (APC (303–739); Repeat 3, Conc. 0.049 μM): 199.7 | mean (FP signal, FigS5) (APC (303–739); Repeat 3, Conc. 0.098 μM): 140 | mean (FP signal, FigS5) (APC (303–739); Repeat 3, Conc. 0.195 μM): 103.3 | mean (FP signal, FigS5) (APC (303–739); Repeat 3, Conc. 0.391 μM): 81.3 | mean (FP signal, FigS5) (APC (303–739); Repeat 3, Conc. 0.781 μM): 68 | mean (FP signal, FigS5) (APC (303–739); Repeat 3, Conc. 1.563 μM): 63.7 | mean (FP signal, FigS5) (APC (303–739); Repeat 3, Conc. 3.125 μM): 58.3 | mean (FP signal, FigS5) (APC (303–739); Repeat 3, Conc. 6.25 μM): 58.7 | mean (FP signal, FigS5) (APC (303–739); Repeat 3, Conc. 12.5 μM): 57.7 | mean (FP signal, FigS5) (APC (303–739); Repeat 3, Conc. 25 μM): 54.3 | mean (FP signal, FigS5) (APC (303–739); Repeat 3, Conc. 50 μM): 56.3 | IC50 (APC (303–739); Repeat 3, read-out: IC50(μM) Repeat 3): 0.0379 µM | IC50 (APC (303–739); mean of 3 repeats, read-out: IC50(μM) mean): 0.0415 µM | RT (RT = 1/koff) (His-tagged APC (303–739)): 135 s | Relative response at equilibrium (His-tagged APC (303–739); 1.5625 nM): 2.9457 RU | Relative response at equilibrium (His-tagged APC (303–739); 3.125 nM): 3.565 RU | Relative response at equilibrium (His-tagged APC (303–739); 6.25 nM): 5.67 RU | Relative response at equilibrium (His-tagged APC (303–739); 12.5 nM): 10.1156 RU | Relative response at equilibrium (His-tagged APC (303–739); 25 nM): 17.7318 RU | Relative response at equilibrium (His-tagged APC (303–739); 50 nM): 24.4156 RU | Relative response at equilibrium (His-tagged APC (303–739); 100 nM): 27.6681 RU | Relative response at equilibrium (His-tagged APC (303–739); 200 nM): 31.5021 RU | Kd (His-tagged APC (303–739); SPR, Repeat 1, read-out: KD Repeat 1): 19.9 nM | koff (His-tagged APC (303–739); SPR, Repeat 1, read-out: koff Repeat 1): 0.00848 s⁻¹ | kon (His-tagged APC (303–739); SPR, Repeat 1, read-out: kon Repeat 1): 427000 M⁻¹ s⁻¹ | Kd (His-tagged APC (303–739); SPR, Repeat 2, read-out: KD Repeat 2): 18.8 nM | koff (His-tagged APC (303–739); SPR, Repeat 2, read-out: koff Repeat 2): 0.00807 s⁻¹ | kon (His-tagged APC (303–739); SPR, Repeat 2, read-out: kon Repeat 2): 430000 M⁻¹ s⁻¹ | Kd (His-tagged APC (303–739); SPR, Repeat 3, read-out: KD Repeat 3): 16 nM | koff (His-tagged APC (303–739); SPR, Repeat 3, read-out: koff Repeat 3): 0.00564 s⁻¹ | kon (His-tagged APC (303–739); SPR, Repeat 3, read-out: kon Repeat 3): 353000 M⁻¹ s⁻¹ | Kd (His-tagged APC (303–739); SPR, mean of 3 repeats, read-out: KD mean): 18.2 nM | koff (His-tagged APC (303–739); SPR, mean of 3 repeats, read-out: koff mean): 0.0074 s⁻¹ | kon (His-tagged APC (303–739); SPR, mean of 3 repeats, read-out: kon mean): 403000 M⁻¹ s⁻¹ | RT (His-tagged APC (303–739); SPR, single value printed in the Repeat 1 column): 135 s
